Values belong to the molecule of their own block, whether it stands above or below them.
Tests used:
[1] = test system: SF-1; conditions: CV-1 cells; cited from earlier work
[2] = target: T1, human SF-1 (Homo sapiens, UniProt Q13285); experiment: AlphaScreen coactivator (SRC-1/NCoA1) recruitment to His-tagged SF-1 LBD; format: biochemical; conditions: for dose-dependent NCoA1/SRC1 recruitment to SF-1: FIG. 7B, liposome-washed SF-1
T1 construct: For E. coli expression the SF-1 G219-T461 insert was cloned into a modified pET vector; made in house
T1 sequence (Q13285 219-461): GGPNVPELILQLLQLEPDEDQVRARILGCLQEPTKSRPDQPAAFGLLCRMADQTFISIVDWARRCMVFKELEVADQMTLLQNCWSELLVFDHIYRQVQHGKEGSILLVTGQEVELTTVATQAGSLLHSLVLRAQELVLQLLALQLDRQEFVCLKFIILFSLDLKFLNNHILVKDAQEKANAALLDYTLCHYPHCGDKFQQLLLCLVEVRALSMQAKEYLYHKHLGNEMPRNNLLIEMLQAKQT
T1 sequence (Q15788 595-780 partner limits assumed): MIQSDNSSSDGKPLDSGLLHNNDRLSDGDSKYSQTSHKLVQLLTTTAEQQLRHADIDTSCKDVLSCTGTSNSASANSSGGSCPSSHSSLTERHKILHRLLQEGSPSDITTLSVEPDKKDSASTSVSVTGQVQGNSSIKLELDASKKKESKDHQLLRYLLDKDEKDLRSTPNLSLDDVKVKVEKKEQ
From the text: However, the lipids binding SF-1 could be partially extracted by washing the proteins with liposomes prepared using phosphatidylcholine (C22 acyl chain length). It was reasoned that such liposomes with long acyl chains could act as a sink for extracted lipids, without binding the receptors themselves. After such washing the coactivator binding by SF-1 was diminished, but could be activated by the addition of phosphatidylethanolamine (FIG. 5A). The PE 16:0 16:1 observed in the crystal structure is unavailable commercially, so it could not be readily obtained. […] (Parks et al., Science, 1999, 284:1365-8; Makishima et al., Science, 1999, 284:1362-5.)
A variety of different methods for detecting molecular interactions can be used. For example, Alpha Screen technology (Perkin Elmer) is suitable to detect the interaction of the receptor with the coactivator fragment. In this case it is suitable to engineer the ligand-binding domain of the SF-1 and LRH-1 as an N-terminally HIS-tagged protein that can bind the acceptor bead (containing Nickel moieties that will bind the HIS tag). The coactivator fragment can be synthesized containing a biotin moiety that will bind the donor bead. In the presence of ‘activating’ compounds the association of the receptor with the co-regulator may be strengthened, whereas the presence of ‘inhibitory’ compounds may destabilize this interaction. Libraries of chemicals, or derivatives, can be quantified for their effects on co-regulator binding.
Thus, in an exemplary implementation, the Alpha Screen Histidine detection (Nickel chelate) kit (Perkin Elmer) is used to detect binding between His-tagged receptor LBD and biotinylated coactivator peptides or fragments. The assay is performed in Costar 384-well white polystyrene plates (Coming Inc.), in a total volume of 20 μL. Compounds to be tested for their abilities to modulate the interaction of nuclear receptor with coactivator are added to the 384-well plate in 1 μL of DMSO or buffer in advance of addition of the receptor and coactivator proteins.
Reactions are initiated in 15 μl containing 50 nM His-tagged nuclear receptor and […] biotin-tagged coactivator fragment, using buffer containing 50 mM Bis-tris HCl (pH 7.0), 50 mM KCl, 0.05% Tween 20, 1 mM DTT, 0.1% BSA. Other buffer variations can be tested to optimize the largest difference in signals obtained using the apo receptor and receptor bound to compounds already determined to bind and activate the receptor. After the protein solutions are added to the compounds, the plate is sealed and incubated at room temp for 2 hours. After incubation, a 5 μL mixture containing streptavidin donor beads (15 μg/ml) and Ni-chelate acceptor beads (15 μg/ml) are added from the Nickel chelate kit. Plates are resealed and incubated in the dark for 2 hours at room temperature and then read in an AlphaFusion reader set at a read time of 1 s/well.
A signal is produced by the binding of coactivator to nuclear receptor that can be detected by the AlphaFusion reader (the binding brings the acceptor beads into close proximity of the donor beads, which allows the acceptor beads to detect the singlet oxygens produced by the donor beads, causing them to emit a light detected by the instrument). Data analysis can be performed using GraphPad Prism (GraphPad Software, Inc.). […]

[3] = target: coactivator fragment (GST-coactivator fusion protein; the filing does not say which); experiment: co-expression in E. coli, metal affinity purification of His-tagged LRH-1

activation of wild-type SF-1 to bind NCoA1 as measured by AlphaScreen ([2]; 50 μM compound, FIG. 7A): activates
dose-dependent NCoA1/SRC1 recruitment to SF-1 [2]: Dose-dependent
dose-dependent NCoA1/SRC1 recruitment to SF-1 ([2]; listed as PE 18:3 18:3): dose-dependent increase
EC50 ([2]; SF-1 protein washed with phosphatidylcholine liposomes, biotinylated GST-SRC-1 fragment): 30 µM
Molecule: CC/C=C\C/C=C\C/C=C\CCCCCCCC(=O)OC[C@H](COP(=O)(O)OCCN)OC(=O)CCCCCCC/C=C\C/C=C\C/C=C\CC [PE-18:3, 1,2-dilinolenoyl-sn-glycero-3-phosphoethanolamine]

coactivator binding by SF-1 after liposome washing ([2]; SF-1 washed with phosphatidylcholine liposomes, then lipid added): activated
Molecule: phosphatidylethanolamine

Further lines, the molecule ahead of its results:

Molecule: C[C@H](CCCC(C)(C)O)[C@H]1CC[C@H]2[C@@H]3CC=C4C[C@@H](O)CC[C@]4(C)[C@H]3CC[C@]12C [25-hydroxycholesterol]
SF-1-dependent transcriptional activity [1]: modest increase

Molecule: C[C@@H](CO)CCC[C@@H](C)[C@H]1CC[C@H]2[C@@H]3CC=C4C[C@@H](O)CC[C@]4(C)[C@H]3CC[C@]12C [26-hydroxycholesterol]
SF-1-dependent transcriptional activity [1]: modest increase

Molecule: C[C@@H](CO)CCC[C@@H](C)[C@H]1CC[C@H]2[C@@H]3CC=C4C[C@@H](O)CC[C@]4(C)[C@H]3CC[C@]12C [27-hydroxycholesterol]
SF-1-dependent transcriptional activity [1]: modest increase

Molecule: His-tagged human LRH-1 LBD (S251-A495) E488K (from UniProt O00482-2) (receptor)
decrease in coactivator fragment binding compared to the LRH-1-WT protein [3]: 70%

Reference: US20060160135A1, “SF-1 and LRH-1 modulator development” (priority 2004, published 2006)
